Data on 1 compound can be found in US9295735B2, “Liposomal composition for convection-enhanced delivery to the central nervous centre” (MEDGENESIS THERAPEUTIX, INC., priority 2008, dated 2016).

Each structure is given as a SMILES string. Like-named read-outs stand apart in the source and are kept apart here.

Series [1] deals with various malignant glioma cells lines. Conditions: read-out: 50% inhibitory concentration (IC50), cited from earlier work.
A short description of series [2]: Brain tissue pharmacokinetics of Ls-TPT formulations and free topotecan after intracerebral CED (HPLC of total topotecan). Format: in vivo, Sprague-Dawley rats. The protocol: The experiments in this example were performed with research grade material of both liposomal-topotecan (Ls-TPT) and liposomal gadodiamide (Ls-GD). Topotecan (TPT) for free topotecan formulation and for Ls-TPT preparation was obtained from Hisun Pharmaceuticals (Taizhou City, Zhejiang, China). Ls-TPT was provided by Northern Lipids Inc (Burnaby, BC, Canada). In brief, liposomes were composed of distearoylphosphatidylcholine (DSPC), distearoylphosphatidylglycerol (DSPG), and cholesterol at a 7:2:1 molar ratio with 75 to 90 nm target size. Topotecan was remotely loaded (actively encapsulated) into liposomes in response to a transmembrane pH gradient using internal and external buffers consisting of ammonium sulfate 250 mM pH 5.5 and histidine 5 mM/NaCl 145 mM pH 6.0 respectively. Topotecan concentrations of 0.67 and 2.0 mg/mL with a 0.1 and 0.3 (w/w) drug:lipid ratio were respectively targeted assuming a 90-95% drug encapsulation efficiency. A constant total lipid concentration target of 6.7 mg/mL was maintained in both formulations. The manufacturing process is described in details in Example 2.1.2.
For the formulation screening component of this example, the animals were divided in 4 groups based on Ls-TPT formulations or free topotecan as outlined in Table 1.
Rats were anesthetized with either isoflurane (5% for induction; 2.5 to 3.0% for maintenance during surgery) inhalation or a combination of ketamine (60 mg/kg) and xylazine (8 mg/kg) via an intraperitoneal injection. […] Craniectomy was performed using a small electric dental drill with 1-mm diameter burr holes, 0.5 mm anterior and 3 mm left and right from the bregma. […] The test article was injected bilaterally at one site into each striatum.
The brains were removed, placed on ice and the striata dissected using a dorsal approach and the tissue frozen in liquid nitrogen. The tissue was subsequently homogenized with an equal volume of water (1:1 v/v) and then extracted with methanol and stored at −70° C. until shipment to the Sponsor. Tail vein blood was collected (1.0 mL) for the formulation tissue and plasma pharmacokinetics component of this Example.
High performance liquid chromatography (HPLC) of total topotecan (free and liposome-encapsulated) in brain tissue and in plasma was performed by Northern Lipids Inc. (Burnaby, BC, Canada) using an isocratic reversed phase HPLC/UV method. Method details were as follows. Briefly, the animals (n=3) were sacrificed at 1 and 6 hours, 2, 4 and 7 days. The brains were removed, placed on ice, the striata dissected using a dorsal approach and the tissue frozen in liquid nitrogen. Equal volume of ice cold water (1:1 w/w) was added and the thawed tissue was homogenized (Biospec) mechanically for 2 minutes and frozen.

Setting [3] is: normal rat brain tissue after CED, non-compartmental analysis.

Regarding `CC[C@@]1(O)C(=O)OCc2c1cc1n(c2=O)Cc2cc3c(CN(C)C)c(O)ccc3nc2-1` [Formulation F4, topotecan], the IC50 was 2.4 µM in series [1] (exposure over 1 hour), 0.038 µM in series [1] (exposure over 24 hours), 0.28 µM in series [1] (exposure over 72 hours) and no less than 0.02 µM in series [1] (exposure over 120 hours). Besides, the concentration at 1 h in series [2] (Sprague-Dawley, brain (striatum), normal rat striatum, CED 20 μL per hemisphere, TPT 0.5 mg/mL, 1 hour, read-out: Topotecan brain tissue concentration, Mean ± STD) came out at 44.3 ± 39.4 µM. Moreover, the concentration at 6 h in series [2] (Sprague-Dawley, brain (striatum), normal rat striatum, CED 20 μL per hemisphere, TPT 0.5 mg/mL, 6 hours, read-out: Topotecan brain tissue concentration, Mean ± STD) was found to be 15.6 ± 13.8 µM. Further, the concentration at 48 h in series [2] (Sprague-Dawley, brain (striatum), normal rat striatum, CED 20 μL per hemisphere, TPT 0.5 mg/mL, 48 hours, read-out: Topotecan brain tissue concentration, Mean ± STD) came out at 0 nM. In addition, the concentration at 96 h in series [2] (Sprague-Dawley, brain (striatum), normal rat striatum, CED 20 μL per hemisphere, TPT 0.5 mg/mL, 96 hours, read-out: Topotecan brain tissue concentration, Mean ± STD) was found to be 0 nM. Also, the concentration at 168 h in series [2] (Sprague-Dawley, brain (striatum), normal rat striatum, CED 20 μL per hemisphere, TPT 0.5 mg/mL, 168 hours, read-out: Topotecan brain tissue concentration, Mean ± STD) was 0 nM. Also, the “AUC(0-last)” value in series [2] (setting [3]) was 5.5 µg·days/g. Also, the t1/2 result in series [2] (setting [3]) is “much shorter”. In addition, the “Topotecan brain tissue concentration, Mean ± STD” value in series [2] (normal rat striatum, CED 20 μL per hemisphere, TPT 0.5 mg/mL, 1 hour) is on record as 0.0203 ± 0.0181 mg/g of brain tissue; in series [2] (normal rat striatum, CED 20 μL per hemisphere, TPT 0.5 mg/mL, 6 hours), 0.0071 ± 0.0063 mg/g of brain tissue; in series [2] (normal rat striatum, CED 20 μL per hemisphere, TPT 0.5 mg/mL, 48 hours) it was 0 mg/g of brain tissue; in series [2] (normal rat striatum, CED 20 μL per hemisphere, TPT 0.5 mg/mL, 96 hours), 0 mg/g of brain tissue; in series [2] (normal rat striatum, CED 20 μL per hemisphere, TPT 0.5 mg/mL, 168 hours) it was 0 mg/g of brain tissue.
